Measurements published in ChEMBL document CHEMBL1201862, “PubChem BioAssay data set” (2004).
Activity calls are given as the source filed them.

Experiments:
[1] = biological target: Peroxisome proliferator-activated receptor gamma/Nuclear receptor coactivator 1 (Homo sapiens, UniProt P37231); assay: (§1) TR-FRET dose response biochemical High Throughput Screening assay for agonists of the steroid receptor coactivator 1 (SRC-1) recruitment by the peroxisome proliferator-activated receptor gamma (PPAR gamma): non-selective agonists. [Related pubchem assays (depositor defined):AID1300, AID1808, AID504735, AID631]; format: protein assay
Sequence of Peroxisome proliferator-activated receptor gamma/Nuclear receptor coactivator 1 (P37231 whole entry): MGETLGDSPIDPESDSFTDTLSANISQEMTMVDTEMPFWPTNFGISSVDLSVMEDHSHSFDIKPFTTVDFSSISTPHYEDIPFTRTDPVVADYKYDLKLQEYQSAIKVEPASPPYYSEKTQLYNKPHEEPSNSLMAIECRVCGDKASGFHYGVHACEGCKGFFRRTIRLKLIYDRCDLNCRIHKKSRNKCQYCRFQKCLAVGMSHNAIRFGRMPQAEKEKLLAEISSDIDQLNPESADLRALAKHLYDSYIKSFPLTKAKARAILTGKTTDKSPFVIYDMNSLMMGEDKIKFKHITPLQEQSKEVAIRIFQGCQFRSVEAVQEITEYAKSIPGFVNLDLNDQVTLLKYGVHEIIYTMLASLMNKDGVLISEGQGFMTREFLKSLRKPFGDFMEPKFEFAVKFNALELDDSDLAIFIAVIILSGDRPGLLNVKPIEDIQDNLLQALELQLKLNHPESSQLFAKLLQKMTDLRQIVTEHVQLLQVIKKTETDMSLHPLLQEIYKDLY
Sequence of Peroxisome proliferator-activated receptor gamma/Nuclear receptor coactivator 1 (Q15788 whole entry, further chain): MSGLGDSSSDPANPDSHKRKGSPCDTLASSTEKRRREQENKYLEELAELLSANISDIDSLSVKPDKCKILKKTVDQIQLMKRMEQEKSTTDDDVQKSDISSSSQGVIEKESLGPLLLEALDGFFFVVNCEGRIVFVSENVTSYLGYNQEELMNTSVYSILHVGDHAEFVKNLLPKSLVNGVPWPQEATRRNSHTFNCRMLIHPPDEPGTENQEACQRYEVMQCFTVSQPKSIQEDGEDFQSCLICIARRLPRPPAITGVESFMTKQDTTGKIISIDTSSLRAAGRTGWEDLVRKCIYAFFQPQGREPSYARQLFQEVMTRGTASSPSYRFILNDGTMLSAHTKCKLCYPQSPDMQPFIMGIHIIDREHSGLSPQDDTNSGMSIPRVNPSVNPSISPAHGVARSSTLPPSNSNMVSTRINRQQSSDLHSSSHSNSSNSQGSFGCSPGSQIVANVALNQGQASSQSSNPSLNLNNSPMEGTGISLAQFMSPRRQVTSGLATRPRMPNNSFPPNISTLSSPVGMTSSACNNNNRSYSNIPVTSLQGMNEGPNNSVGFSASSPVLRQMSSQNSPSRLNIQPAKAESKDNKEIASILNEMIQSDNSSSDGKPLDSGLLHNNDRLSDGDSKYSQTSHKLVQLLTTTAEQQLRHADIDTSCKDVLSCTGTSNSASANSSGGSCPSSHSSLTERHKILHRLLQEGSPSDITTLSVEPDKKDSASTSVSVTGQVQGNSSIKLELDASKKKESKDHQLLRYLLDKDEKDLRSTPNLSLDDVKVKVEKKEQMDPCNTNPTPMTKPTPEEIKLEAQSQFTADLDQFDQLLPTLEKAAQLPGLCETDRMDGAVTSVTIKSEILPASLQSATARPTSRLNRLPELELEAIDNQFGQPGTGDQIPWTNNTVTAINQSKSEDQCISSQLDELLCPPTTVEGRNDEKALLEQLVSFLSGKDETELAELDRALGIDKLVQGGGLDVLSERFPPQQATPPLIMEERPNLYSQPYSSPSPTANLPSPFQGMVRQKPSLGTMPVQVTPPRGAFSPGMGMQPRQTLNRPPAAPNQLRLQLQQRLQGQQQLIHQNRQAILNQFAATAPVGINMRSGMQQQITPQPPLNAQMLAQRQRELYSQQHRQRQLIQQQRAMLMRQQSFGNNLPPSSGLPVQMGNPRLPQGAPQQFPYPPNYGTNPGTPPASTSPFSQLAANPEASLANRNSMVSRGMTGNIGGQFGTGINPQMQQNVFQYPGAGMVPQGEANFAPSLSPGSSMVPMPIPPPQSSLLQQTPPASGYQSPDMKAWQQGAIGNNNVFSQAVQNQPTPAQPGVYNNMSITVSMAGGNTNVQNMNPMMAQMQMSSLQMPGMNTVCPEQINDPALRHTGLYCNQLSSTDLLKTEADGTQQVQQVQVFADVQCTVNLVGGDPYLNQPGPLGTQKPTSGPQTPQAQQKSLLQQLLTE

[2] = biological target: Peroxisome proliferator-activated receptor gamma/Nuclear receptor coactivator 3 (Homo sapiens, UniProt P37231); assay: as §1, with “3 (SRC-3)” for “1 (SRC-1)”, “assays: 1301 (Confirmation screen.), 1048 (Primary screen.)]” for “assays (depositor defined):AID1300, AID1808, AID504735, AID631]”; format: functional
Sequence of Peroxisome proliferator-activated receptor gamma/Nuclear receptor coactivator 3 (P37231 whole entry): as the sequence (P37231 whole entry) above
Sequence of Peroxisome proliferator-activated receptor gamma/Nuclear receptor coactivator 3 (Q9Y6Q9 whole entry, further chain): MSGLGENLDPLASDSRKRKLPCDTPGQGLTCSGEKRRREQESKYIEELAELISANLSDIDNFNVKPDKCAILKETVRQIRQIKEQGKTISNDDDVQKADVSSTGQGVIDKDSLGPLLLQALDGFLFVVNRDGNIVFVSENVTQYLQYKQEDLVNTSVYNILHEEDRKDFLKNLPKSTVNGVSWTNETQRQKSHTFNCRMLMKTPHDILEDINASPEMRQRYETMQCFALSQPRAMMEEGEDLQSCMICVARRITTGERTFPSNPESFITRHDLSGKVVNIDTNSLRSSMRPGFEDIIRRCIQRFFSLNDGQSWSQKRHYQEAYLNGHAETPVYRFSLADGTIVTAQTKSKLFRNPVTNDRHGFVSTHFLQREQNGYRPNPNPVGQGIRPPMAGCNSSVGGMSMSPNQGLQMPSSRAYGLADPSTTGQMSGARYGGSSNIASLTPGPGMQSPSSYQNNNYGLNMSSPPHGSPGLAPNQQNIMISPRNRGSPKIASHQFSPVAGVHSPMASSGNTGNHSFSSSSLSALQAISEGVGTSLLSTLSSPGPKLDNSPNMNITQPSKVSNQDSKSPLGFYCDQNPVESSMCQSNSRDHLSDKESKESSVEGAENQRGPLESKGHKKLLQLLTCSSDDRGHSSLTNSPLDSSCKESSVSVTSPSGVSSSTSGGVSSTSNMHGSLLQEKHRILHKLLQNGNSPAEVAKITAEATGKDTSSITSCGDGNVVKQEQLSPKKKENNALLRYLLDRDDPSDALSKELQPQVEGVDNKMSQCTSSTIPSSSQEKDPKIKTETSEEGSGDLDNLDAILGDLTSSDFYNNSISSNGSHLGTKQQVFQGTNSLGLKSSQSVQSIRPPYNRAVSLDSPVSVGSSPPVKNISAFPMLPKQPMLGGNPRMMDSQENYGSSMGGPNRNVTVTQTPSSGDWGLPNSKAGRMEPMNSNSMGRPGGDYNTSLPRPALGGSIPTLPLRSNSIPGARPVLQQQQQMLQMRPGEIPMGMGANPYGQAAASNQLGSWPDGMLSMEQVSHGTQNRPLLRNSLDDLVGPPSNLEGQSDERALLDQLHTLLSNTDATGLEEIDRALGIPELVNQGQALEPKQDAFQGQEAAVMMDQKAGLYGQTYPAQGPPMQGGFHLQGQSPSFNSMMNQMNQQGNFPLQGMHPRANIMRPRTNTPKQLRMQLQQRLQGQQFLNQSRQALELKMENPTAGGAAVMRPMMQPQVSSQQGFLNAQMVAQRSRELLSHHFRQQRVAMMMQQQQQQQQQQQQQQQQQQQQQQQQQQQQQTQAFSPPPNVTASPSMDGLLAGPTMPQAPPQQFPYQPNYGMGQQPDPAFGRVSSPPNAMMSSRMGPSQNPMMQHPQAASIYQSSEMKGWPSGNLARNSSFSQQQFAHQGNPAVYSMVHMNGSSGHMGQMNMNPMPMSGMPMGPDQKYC

[3] = biological target: Peroxisome proliferator-activated receptor gamma/Nuclear receptor coactivator 2 (Homo sapiens, UniProt P37231); assay: TR-FRET dose response biochemical High Throughput Screening assay for agonists of the steroid receptor coactivator 2 (SRC-2) recruitment by the peroxisome proliferator-activated receptor gamma (PPAR gamma): non-selective agonists. [Related pubchem assays: 1297, 1032 ]; format: functional
[4] = biological target: 26S proteasome non-ATPase regulatory subunit 14 (Homo sapiens, UniProt O00487); assay: inhibition of proteasome subunit RPN11 – biochemical, fluorescence polarization, uHTS hits, confirmation (AID 602368); format: functional
Sequence of 26S proteasome non-ATPase regulatory subunit 14 (O00487 whole entry): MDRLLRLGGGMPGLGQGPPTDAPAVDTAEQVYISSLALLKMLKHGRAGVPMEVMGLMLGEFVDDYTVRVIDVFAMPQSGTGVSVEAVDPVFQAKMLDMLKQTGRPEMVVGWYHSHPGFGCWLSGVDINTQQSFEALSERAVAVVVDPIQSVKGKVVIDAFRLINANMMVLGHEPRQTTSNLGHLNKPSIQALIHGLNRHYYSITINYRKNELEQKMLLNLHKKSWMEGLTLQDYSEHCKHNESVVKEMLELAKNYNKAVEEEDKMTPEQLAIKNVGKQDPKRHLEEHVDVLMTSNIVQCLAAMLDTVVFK

[5] = biological target: 72 kDa type IV collagenase (Homo sapiens, UniProt P08253); assay: Dose Response validation of uHTS RPN11 inhibitor hits using a MMP-2 Fluorescence assay.; format: functional
Prothrombin = Prothrombin (Bos taurus, UniProt P00735); assay: thrombin protease inhibitors – biochemical, fluorescence polarization, uHTS hits, dose response (AID 602369); format: functional
[6] = Luminescence Cell-Based Dose Retest to Confirm Inhibitors of Cancer Stem Cells. [Related pubchem assays (depositor defined):AID2717, AID2721]; format: functional; details: Homo sapiens
[7] = viability loss of HMLE_sh_eGFP cells – cell-based, luminescence, counter-screen for HMLE_sh_ECad selective toxicity project, dose response (AID 463074); format: functional, Homo sapiens;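 note: HMLE human mammary epithelial cells expressing control shRNA against eGFP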
Large T antigen = Large T antigen (Simian virus 40, UniProt P03070); format: functional, Betapolyomavirus macacae;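 note: Confirmatory-stage PubChem screen for compounds that inhibit SV40 T antigen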
Sequence of Large T antigen (P03070 whole entry): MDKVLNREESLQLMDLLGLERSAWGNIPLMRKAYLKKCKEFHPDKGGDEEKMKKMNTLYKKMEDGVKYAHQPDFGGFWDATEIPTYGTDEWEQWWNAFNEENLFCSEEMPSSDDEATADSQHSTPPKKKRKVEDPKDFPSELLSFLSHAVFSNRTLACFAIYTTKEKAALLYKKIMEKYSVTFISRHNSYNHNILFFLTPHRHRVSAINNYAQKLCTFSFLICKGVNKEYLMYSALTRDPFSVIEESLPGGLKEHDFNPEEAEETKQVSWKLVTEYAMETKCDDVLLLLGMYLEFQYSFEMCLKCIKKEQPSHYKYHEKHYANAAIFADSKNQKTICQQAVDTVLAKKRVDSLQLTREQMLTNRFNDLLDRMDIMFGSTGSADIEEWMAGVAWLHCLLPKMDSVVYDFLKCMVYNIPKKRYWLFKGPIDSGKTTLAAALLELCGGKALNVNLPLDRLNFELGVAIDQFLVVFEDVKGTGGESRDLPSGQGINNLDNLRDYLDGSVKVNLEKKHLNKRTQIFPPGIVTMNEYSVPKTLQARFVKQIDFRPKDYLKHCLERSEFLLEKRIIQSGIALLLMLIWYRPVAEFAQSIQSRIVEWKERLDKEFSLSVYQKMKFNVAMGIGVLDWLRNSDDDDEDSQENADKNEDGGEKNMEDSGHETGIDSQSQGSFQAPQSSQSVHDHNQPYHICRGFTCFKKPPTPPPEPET

[8] = biological target: Dual specificity tyrosine-phosphorylation-regulated kinase 1A (Rattus norvegicus, UniProt Q63470); format: biochemical, Homo sapiens
BJ [9] = assay: BJ-TERT fibroblast viability loss – cell-based, RAS-independent, luminescence, dose response (AID 1933); format: functional; details: Homo sapiens
BJ [10] = assay: cells; format: functional, cell-based; details: Homo sapiens
BJ [11] = assay: BJ-TERT-LT-ST fibroblast viability loss – cell-based, RAS-independent, luminescence, dose response (AID 1935); format: functional; details: Homo sapiens;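 note: BJ fibroblasts immortalized with TERT plus LT and ST oncogenes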
[12] = DRD fibroblast viability loss – cell-based, non-viral oncogenic, luminescence, dose response (AID 1934); format: functional; details: Homo sapiens
BJ [13] = assay: growth inhibition of engineered Ras-driven BJ cells – cell-based, alamar blue fluorescence, cherrypicked samples, dose response (AID 2631); format: functional; details: Homo sapiens;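 note: confirmatory dose-response assay in RAS-dependent BJ fibroblasts engineered with TERT, LT and ST, with cytotoxicity read by fluorescence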
INS1 = assay: INS-1E survival protection against cytokine death – cell-based, luminescence, retest, dose response (AID 449756); format: functional; details: Rattus norvegicus;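 note: cell death triggered by IL-1 beta plus TNF-alpha plus IFN-gamma mixture; protective hits raise ATP signal compared with cytokine alone wells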
Coagulation factor XII = biological target: T1, Coagulation factor XII (Homo sapiens, UniProt P00748); format: functional;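 note: activated factor XIIa alpha cleaving a fluorogenic AMC peptide substrate; inhibitor potency from loss of enzyme activity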
T1 sequence (P00748 whole entry): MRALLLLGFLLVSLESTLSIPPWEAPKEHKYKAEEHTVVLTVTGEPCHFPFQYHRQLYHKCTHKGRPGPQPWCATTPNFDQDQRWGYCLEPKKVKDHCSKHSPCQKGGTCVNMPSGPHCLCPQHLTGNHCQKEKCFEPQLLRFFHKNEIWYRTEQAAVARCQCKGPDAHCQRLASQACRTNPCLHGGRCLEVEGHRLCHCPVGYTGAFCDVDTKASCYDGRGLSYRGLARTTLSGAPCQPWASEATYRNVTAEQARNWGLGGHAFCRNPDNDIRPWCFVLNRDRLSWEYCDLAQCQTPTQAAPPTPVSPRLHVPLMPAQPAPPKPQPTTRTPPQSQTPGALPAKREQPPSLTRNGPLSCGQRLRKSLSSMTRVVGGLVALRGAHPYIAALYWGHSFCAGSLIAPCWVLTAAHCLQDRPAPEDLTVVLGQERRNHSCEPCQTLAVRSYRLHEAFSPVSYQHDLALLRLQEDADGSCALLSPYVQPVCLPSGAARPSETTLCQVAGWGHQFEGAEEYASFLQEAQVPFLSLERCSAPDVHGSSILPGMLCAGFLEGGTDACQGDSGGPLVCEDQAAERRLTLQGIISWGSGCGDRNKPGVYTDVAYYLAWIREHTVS

In the case of `c1ccc(-c2nnsc2-c2nc3ccccc3[nH]2)cc1`, the EC50 [1] is reported as 10.8 µM (inactive), the EC50 [2] is reported as 83.6 µM (not active) and the EC50 [3] is reported as 10.3 µM (not active).

In the case of `CCOC(=O)C1CCCN(CC(=O)Nc2c(C(=O)OC)[nH]c3ccc(Br)cc23)C1` (configuration not stated), the EC50 [1] is reported as > 79.4 µM (inactive), the EC50 [2] is reported as > 79.4 µM (not active) and the EC50 [3] is reported as > 26.5 µM (not active).

In the case of `Cc1cc(C)c(S(=O)(=O)N2C[C@H]3CON(C)[C@H]3C[C@H]2c2ccc(N3CCCCC3)cc2)c(C)c1`, the IC50 [4] is reported as 23.2 µM (active), the IC50 [5] is reported as > 100 µM (inactive) and the IC50 (Prothrombin) is reported as 29.2 µM (active).

In the case of `O=C(NNc1nc(-c2ccc(Cl)cc2)cs1)c1ccco1`, the AC50 [6] is reported as 1.8 µM (active) and the AC50 [7] is reported as 87.8 µM (active).

With `CC(Sc1nnc(-c2ccc(Cl)cc2Cl)n1Cc1ccccc1)C(=O)Nc1nccs1` (configuration not stated) the EC50 [1] was 10.6 µM (inactive), the EC50 [2] was 17.6 µM (not active) and the EC50 [3] was > 79.4 µM (not active).

In the case of `Oc1ccc2c(c1)oc1cc(O)ccc12`, the IC50 (Large T antigen) is reported as 3.5 µM (active) and the AC50 [8] is reported as 0.754 µM (active).

For `O=C(NCCCn1ccnc1)c1ccc(N2CCCCCC2)c([N+](=O)[O-])c1`, the EC50 (BJ [9]) was > 150 µM (not active), the EC50 (BJ [10]) was 7.97 µM (active) and the EC50 (BJ [11]) was 11.4 µM (active). The EC50 [12] was 25.6 µM (active), the EC50 (BJ [13]) was 3.55 µM (active) and the AC50 (INS1) was 6.67 µM (active).

With `COCc1c(C(=O)OCc2nc(N)nc(Nc3ccccc3C)n2)oc2ccccc12` the IC50 (Coagulation factor XII) was > 50 µM (inactive).

For `COc1ccc(-n2c(/C=C/c3ccc(O)c(O)c3)nc3ccccc3c2=O)cc1`, the IC50 (Large T antigen) was 55.9 µM (active), the IC50 [4] was 9.05 µM (active) and the IC50 [5] was > 100 µM (inactive). The IC50 (Prothrombin) was 6.49 µM (active).
